Assay results reported in ChEMBL document CHEMBL1201862, “PubChem BioAssay data set” (2004).
The source made the active and inactive calls.

Experiments:
[1] = target: T1, Scavenger receptor class B member 1 (Mus musculus, UniProt Q61009); assay: inhibitors of SR-BI mediated HDL lipid uptake, dose response, ldlA[mSR-BI] cells, fluorescence, cherry pick (AID 493194); assay type: functional, cell-based;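 note: cellular uptake of fluorescent DiI-labeled HDL measured as cell fluorescence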
T1 sequence (Q61009 whole entry): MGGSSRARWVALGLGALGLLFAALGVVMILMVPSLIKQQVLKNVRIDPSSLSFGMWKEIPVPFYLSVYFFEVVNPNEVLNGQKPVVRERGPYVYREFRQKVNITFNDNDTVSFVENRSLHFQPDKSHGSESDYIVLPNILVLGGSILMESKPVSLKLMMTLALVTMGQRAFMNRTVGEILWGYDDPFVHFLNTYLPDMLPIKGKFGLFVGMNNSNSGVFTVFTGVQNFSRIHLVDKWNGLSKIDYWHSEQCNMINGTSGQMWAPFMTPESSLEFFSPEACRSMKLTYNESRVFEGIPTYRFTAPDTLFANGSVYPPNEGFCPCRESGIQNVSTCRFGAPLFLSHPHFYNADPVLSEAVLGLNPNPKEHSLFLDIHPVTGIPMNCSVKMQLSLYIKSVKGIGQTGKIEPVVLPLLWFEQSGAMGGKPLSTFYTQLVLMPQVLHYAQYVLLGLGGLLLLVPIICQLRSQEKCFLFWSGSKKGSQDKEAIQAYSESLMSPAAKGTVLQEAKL

[2] = control 3'UTR Renilla luciferase suppression, dose response, counter-screen for Shn3 inhibitor project, cell-based, Clone20-Shn3RL, cherry-picked (AID 624133); assay type: functional
[3] = target: T2, Heat shock factor protein 1 (Mus musculus, UniProt P38532); assay: inhibition of MG132-induced HSE-luciferase signal, confirmation, cell-based, NIH3T3, luminescence, dose retest (AID 2382); assay type: functional;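 note: NIH3T3 fibroblasts with HSF1-driven luciferase reporter stressed by proteasome inhibitor MG132; luminescence from HSF1-driven luciferase expression after 8 hours of MG132 stress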
T2 sequence (P38532 whole entry): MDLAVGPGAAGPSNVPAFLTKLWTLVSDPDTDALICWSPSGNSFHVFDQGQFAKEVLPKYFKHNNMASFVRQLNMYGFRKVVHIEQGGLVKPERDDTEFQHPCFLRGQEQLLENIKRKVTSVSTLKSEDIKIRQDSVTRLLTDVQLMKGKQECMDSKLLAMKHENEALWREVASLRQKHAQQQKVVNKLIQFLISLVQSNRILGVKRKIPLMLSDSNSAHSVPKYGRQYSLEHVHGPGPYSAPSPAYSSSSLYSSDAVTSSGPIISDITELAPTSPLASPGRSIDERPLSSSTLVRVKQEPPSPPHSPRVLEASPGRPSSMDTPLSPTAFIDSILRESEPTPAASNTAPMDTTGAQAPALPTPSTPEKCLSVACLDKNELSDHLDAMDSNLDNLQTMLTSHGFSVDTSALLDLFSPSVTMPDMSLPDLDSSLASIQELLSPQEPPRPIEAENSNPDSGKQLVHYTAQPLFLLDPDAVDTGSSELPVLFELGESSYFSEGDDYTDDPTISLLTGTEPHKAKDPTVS

[4] = HepG2 cell cytotoxicity, dose response, cytotoxicity control for Shn3 inhibitor project, CellTiter-Glo, cherry-picked (AID 624134); assay type: functional, cell-based
[5] = Luminescence Cell-Based Dose Response HTS to Identify Inhibitors of 5'UTR Stem-Loop Driven Prion Protein mRNA Translation in H4 Neuroglioblastoma Cells. [Related pubchem assays: 1827 (Project Summary), 1813 (Primary HTS)]; assay type: functional
[6] = inhibitors of firefly luciferase expression or activity, dose response, H4 neuroglioma cells, luminescence (AID 1990); assay type: functional, cell-based
[7] = Shn3 3'UTR reporter inhibitors, dose response, cell-based, Clone20 osteoblasts, firefly luciferase, cherry-picked (AID 624132); assay type: functional;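 note: firefly luciferase luminescence from reporter carrying the Shn3 3'UTR in osteoblasts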
[8] = inhibitors of SNCA 5'UTR-driven reporter translation, confirmation, H4 neuroglioma cells, luminescence (AID 1988); assay type: functional, cell-based
[9] = target: T3, Estrogen receptor (Homo sapiens, UniProt P03372);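 note: potency for inhibiting coactivator peptide recruitment to the receptor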
T3 sequence (P03372 whole entry): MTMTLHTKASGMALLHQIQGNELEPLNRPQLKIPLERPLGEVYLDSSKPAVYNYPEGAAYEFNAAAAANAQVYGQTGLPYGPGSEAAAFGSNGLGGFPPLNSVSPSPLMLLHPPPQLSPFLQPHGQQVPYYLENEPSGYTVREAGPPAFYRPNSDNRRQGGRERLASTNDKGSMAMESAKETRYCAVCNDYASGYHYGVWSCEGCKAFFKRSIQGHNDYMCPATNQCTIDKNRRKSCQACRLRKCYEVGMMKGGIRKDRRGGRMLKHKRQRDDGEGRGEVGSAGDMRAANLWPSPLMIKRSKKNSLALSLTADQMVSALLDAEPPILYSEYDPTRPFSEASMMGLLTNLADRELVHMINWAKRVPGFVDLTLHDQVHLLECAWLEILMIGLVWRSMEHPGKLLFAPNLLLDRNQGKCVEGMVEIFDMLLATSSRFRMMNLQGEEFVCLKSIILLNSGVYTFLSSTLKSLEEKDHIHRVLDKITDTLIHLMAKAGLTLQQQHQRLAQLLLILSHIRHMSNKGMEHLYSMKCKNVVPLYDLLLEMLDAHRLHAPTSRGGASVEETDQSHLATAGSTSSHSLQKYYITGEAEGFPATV

[10] = target: T4, Rac GTPase-activating protein 1 (Homo sapiens, UniProt Q9H0H5); assay: MgcRacGAP GTPase-activating activity inhibitors, confirmation, biochemical, ADP Hunter fluorescence, primary and confirmatory (AID 624330); assay type: functional
T4 sequence (Q9H0H5 whole entry): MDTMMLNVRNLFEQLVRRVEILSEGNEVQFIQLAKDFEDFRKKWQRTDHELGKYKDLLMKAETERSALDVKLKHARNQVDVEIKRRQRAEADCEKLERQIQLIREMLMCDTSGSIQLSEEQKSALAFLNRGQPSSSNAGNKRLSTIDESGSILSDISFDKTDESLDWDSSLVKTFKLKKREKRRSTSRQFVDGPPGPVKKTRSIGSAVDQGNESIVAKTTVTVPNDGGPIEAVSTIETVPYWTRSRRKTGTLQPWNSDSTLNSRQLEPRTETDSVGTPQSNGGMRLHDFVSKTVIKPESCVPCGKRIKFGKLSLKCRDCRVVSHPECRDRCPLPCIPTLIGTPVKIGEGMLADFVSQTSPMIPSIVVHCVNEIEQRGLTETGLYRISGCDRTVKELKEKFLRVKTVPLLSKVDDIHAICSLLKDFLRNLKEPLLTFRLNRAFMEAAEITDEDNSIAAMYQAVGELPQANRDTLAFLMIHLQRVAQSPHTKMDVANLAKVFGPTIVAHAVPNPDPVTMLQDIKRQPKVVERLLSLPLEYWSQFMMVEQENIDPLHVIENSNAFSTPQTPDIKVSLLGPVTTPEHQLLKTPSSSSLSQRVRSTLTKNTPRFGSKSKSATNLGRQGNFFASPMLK

[11] = target: ORF 73 (Human herpesvirus 8, UniProt O40947); assay: inhibitors of C-LANA binding to LBS DNA, dose response, biochemical, fluorescence polarization, cherry-picked samples (AID 504725); design: species or system Human gammaherpesvirus 8;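 note: fluorescence polarization of a labeled DNA duplex reporting LANA DNA binding; potency is for inhibitors that block LANA binding to the DNA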
Sequence of ORF 73 (O40947 whole entry): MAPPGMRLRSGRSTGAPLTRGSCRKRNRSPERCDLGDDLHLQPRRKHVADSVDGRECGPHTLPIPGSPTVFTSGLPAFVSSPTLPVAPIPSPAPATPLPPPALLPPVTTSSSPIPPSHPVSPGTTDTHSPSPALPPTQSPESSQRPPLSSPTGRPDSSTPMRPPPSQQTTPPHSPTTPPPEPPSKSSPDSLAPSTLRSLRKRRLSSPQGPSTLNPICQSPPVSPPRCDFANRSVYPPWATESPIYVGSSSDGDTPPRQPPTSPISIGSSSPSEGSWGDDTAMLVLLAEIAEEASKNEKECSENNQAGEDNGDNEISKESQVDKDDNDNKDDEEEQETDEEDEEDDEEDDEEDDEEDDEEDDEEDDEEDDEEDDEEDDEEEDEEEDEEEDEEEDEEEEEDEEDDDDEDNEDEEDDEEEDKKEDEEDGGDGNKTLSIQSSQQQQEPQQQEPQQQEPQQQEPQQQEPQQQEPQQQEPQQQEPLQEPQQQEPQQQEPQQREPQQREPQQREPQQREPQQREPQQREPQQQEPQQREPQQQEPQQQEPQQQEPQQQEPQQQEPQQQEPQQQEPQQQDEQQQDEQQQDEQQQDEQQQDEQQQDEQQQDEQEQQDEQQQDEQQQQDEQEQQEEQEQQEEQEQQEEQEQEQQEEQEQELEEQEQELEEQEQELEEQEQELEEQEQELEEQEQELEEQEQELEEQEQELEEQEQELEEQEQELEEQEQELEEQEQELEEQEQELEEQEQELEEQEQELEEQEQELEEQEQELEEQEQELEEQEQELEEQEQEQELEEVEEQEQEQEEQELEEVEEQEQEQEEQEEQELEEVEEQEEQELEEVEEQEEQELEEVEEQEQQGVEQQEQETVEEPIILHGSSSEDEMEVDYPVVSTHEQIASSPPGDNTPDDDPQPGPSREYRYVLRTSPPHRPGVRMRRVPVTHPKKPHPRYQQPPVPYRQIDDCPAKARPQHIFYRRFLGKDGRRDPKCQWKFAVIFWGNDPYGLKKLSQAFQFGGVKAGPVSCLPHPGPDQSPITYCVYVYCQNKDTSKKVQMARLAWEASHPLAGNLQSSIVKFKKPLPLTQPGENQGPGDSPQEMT

[12] = target: Paired box protein Pax-8 (Homo sapiens, UniProt Q06710); assay: inhibitors of PAX8-driven TPO luciferase reporter, dose response, RMG-I cells, cherry-pick (AID 687027); assay type: functional, cell-based;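 note: luciferase reporter driven by Pax8 target thyroperoxidase promoter measured by SteadyGlo luminescence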
[13] = tested on: HeLa; assay: HeLa cell cytotoxicity, dose response, cytotoxicity control, 24 h, cherry-picked samples (AID 504726); assay type: functional, cell-based; conditions: Homo sapiens;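 note: potency for cytotoxicity as loss of luminescence signal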
[14] = target: Nonstructural protein 1 (Influenza A virus, UniProt Q194T2); assay type: functional, Influenza A virus (A/California/07/2009(H1N1))
Sequence of Nonstructural protein 1 (Q194T2 whole entry): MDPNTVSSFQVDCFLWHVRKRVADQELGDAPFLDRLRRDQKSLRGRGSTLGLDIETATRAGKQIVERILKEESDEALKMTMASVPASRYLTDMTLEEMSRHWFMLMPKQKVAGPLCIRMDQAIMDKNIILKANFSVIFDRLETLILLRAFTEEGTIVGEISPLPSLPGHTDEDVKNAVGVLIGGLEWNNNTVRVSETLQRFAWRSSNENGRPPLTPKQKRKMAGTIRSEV

[15] = target: Protein S100-A4 (Homo sapiens, UniProt P26447); assay: S100A4-myosin IIA binding inhibitor potency, dose response, biochemical, fluorescence polarization, cherry-picked hits (AID 687001); assay type: functional
Sequence of Protein S100-A4 (P26447 whole entry): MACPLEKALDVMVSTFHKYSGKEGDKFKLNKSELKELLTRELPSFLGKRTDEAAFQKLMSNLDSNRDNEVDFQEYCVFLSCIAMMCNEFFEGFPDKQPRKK

[16] = HeLa cell cytotoxicity, dose response, cytotoxicity control for MgcRacGAP inhibitor project (AID 624300); assay type: functional
[17] = target: Voltage-gated N-type calcium channel alpha-1B subunit/Amyloid beta A4 precursor protein-binding family A member 1 (Homo sapiens, UniProt Q00975+Q02410); assay: disruptors of Mint-PDZ/N-type channel peptide interaction – biochemical, HTRF, set 2, SAR follow-up (AID 434980); assay type: functional
Sequence of Voltage-gated N-type calcium channel alpha-1B subunit/Amyloid beta A4 precursor protein-binding family A member 1 (Q00975 whole entry): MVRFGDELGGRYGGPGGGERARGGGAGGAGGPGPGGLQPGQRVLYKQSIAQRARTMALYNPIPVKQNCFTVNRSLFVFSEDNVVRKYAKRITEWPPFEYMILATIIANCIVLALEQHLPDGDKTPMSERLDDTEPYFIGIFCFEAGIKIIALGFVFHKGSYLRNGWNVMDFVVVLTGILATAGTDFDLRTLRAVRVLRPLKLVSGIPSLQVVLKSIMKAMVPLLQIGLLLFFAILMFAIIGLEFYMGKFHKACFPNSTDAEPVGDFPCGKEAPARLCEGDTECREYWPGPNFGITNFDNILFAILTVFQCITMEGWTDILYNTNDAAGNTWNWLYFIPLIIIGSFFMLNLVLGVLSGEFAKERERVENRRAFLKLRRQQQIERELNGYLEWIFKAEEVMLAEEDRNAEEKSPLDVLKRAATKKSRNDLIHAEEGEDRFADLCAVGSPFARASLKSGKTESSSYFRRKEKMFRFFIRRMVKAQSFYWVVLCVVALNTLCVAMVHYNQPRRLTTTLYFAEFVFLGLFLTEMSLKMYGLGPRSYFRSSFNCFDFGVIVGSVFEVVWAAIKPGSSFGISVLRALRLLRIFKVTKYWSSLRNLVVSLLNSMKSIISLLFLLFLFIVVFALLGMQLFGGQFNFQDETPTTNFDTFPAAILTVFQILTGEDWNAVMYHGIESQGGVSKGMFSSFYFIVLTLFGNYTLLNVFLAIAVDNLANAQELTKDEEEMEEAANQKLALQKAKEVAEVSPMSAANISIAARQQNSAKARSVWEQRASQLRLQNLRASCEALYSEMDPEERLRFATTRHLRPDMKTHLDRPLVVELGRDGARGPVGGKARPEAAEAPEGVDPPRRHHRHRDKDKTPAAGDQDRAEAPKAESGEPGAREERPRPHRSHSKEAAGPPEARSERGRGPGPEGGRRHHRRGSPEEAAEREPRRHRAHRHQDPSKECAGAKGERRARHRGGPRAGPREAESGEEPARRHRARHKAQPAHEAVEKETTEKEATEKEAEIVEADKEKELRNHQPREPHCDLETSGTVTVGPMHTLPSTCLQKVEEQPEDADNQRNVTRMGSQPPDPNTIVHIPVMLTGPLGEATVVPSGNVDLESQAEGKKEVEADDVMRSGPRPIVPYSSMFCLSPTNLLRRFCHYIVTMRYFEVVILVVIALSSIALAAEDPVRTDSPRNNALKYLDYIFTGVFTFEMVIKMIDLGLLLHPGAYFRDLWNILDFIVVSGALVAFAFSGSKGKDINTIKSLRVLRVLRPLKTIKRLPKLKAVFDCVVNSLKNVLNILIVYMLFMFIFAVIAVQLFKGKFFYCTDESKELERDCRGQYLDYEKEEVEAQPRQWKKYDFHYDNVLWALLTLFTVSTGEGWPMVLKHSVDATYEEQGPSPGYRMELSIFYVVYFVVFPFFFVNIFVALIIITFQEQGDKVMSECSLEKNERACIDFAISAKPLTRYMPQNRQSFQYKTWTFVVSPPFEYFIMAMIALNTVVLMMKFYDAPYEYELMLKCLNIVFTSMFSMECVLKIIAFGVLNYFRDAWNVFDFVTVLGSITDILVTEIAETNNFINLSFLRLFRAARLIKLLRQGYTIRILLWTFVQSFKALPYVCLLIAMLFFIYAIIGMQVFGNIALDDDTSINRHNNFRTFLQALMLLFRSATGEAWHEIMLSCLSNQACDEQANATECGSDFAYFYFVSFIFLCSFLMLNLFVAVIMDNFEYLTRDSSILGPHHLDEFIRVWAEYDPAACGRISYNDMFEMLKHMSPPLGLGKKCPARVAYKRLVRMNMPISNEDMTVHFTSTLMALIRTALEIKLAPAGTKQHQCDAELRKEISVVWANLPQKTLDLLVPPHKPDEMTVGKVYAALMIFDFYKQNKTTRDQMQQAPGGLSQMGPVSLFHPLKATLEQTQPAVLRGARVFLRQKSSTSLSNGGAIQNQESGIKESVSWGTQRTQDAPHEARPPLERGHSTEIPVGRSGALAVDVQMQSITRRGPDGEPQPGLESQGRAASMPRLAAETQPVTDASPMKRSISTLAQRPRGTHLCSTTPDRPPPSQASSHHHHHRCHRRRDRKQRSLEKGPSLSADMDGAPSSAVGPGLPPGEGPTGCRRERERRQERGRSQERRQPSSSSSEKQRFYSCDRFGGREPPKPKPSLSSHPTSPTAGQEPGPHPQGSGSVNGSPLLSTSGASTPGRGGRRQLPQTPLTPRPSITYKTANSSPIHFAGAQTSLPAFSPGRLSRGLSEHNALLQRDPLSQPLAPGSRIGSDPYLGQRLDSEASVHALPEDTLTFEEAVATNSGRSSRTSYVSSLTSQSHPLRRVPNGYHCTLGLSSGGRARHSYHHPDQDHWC
Sequence of Voltage-gated N-type calcium channel alpha-1B subunit/Amyloid beta A4 precursor protein-binding family A member 1 (Q02410 whole entry): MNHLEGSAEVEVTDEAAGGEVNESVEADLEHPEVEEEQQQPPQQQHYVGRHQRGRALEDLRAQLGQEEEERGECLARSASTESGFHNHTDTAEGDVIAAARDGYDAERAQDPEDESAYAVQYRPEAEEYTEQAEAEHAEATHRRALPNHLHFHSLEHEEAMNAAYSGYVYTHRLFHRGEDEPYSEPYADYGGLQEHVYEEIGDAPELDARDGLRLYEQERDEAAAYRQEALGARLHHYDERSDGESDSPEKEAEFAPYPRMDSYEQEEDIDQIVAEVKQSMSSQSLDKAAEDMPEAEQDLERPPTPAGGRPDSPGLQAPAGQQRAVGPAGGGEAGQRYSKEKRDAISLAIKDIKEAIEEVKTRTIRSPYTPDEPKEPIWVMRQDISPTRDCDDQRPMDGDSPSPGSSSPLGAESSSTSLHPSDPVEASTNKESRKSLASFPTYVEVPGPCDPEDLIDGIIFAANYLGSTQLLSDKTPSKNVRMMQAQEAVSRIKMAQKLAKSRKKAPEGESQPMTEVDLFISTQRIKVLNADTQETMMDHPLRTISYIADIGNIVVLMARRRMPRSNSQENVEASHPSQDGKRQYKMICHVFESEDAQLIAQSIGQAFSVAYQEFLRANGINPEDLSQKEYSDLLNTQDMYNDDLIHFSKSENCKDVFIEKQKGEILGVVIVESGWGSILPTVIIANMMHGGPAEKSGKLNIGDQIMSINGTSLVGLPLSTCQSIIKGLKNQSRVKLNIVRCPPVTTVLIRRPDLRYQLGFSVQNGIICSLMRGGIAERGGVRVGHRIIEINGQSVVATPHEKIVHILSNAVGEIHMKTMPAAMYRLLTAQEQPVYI

[18] = target: Beta-galactosidase (Escherichia coli, UniProt Q8VNN2); assay type: functional
[19] = target: T5, Kappa-type opioid receptor (Homo sapiens, UniProt P41145); assay type: functional
T5 sequence (P41145 whole entry): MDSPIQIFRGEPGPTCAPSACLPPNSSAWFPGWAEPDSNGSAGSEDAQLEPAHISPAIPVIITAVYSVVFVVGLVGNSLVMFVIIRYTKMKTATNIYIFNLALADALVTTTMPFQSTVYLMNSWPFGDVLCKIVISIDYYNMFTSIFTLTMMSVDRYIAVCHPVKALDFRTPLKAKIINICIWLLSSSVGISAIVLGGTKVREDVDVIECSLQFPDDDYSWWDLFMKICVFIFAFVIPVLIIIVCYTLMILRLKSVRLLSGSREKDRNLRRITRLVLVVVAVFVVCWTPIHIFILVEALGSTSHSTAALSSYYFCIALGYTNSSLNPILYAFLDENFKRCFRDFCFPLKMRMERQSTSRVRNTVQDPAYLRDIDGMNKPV

[20] = target: T5, Kappa-type opioid receptor; assay type: functional; remark: listed apart in the source

## CCOc1cc(N2CCOCC2)c(OCC)cc1NC(=O)c1cc(-c2ccco2)nc2ccccc12
[1]
  AC50: 46.2 µM (active)
[2]
  AC50: 9.78 µM (active)
[3]
  EC50: 1.21 µM (active)
[4]
  AC50: 53.5 µM (active)
[5]
  EC50: > 120 µM (not active)
[6]
  EC50: > 120 µM (not active)
[7]
  AC50: 8.94 µM (active)
[8]
  EC50: 7.84 µM (active)
[9]
  IC50: 14.7 µM (active)

## COc1cccc2c1C(=O)c1c(O)c3c(c(O)c1C2=O)CC(O)(C(C)=NNC(=O)c1ccc(Cl)c(Cl)c1)CC3OC1CC(N)C(O)C(C)O1 (stereo not given)
[10]
  IC50: 54.9 µM (active)
[11]
  AC50: 13.2 µM (active)
[12]
  AC50: 4.72 µM (active)
[13]
  AC50: 3.38 µM (active)
[14]
  IC50: 3.67 µM (active)
[15]
  AC50: 0.562 µM (active)
[16]
  CC50: 9.6 µM (active)

## CN(C)CCNC(=O)c1cc(-c2ccco2)nc2ccccc12
[17]
  IC50: > 56.8 µM (inactive)

## C=CC/N=c1\scc(-c2ccc3c(c2)NC(=O)CO3)n1/N=C(\C)c1ccccn1
[18]
  EC50: > 31.5 µM (inactive)
[19]
  IC50: > 32 µM
[20]
  IC50: 10.1 µM (active)
